In patent publication US9611501B2, “Method and device for rapid detection of bacterial antibiotic resistance/susceptibility” (priority 2009, dated 2017):
Values after ≈ are worked out from the molar mass of the structure shown.

How the values were obtained:
[1] = tested on: Sanger 476 methicillin sensitive cells; assay: 4-channel flow cell, Sytox Green fluorescence of immobilized cells; type: cell-based, Staphylococcus aureus; conditions: flow rate 1 mL/min, 0.5 μM Sytox Green
Procedure: (§1) This 4-channel arrangement was used to test a single strain of bacteria in the presence or absence of chemical stress (e.g., lysostaphin). The flow rate used in the channels was 1 mL/min and 0.5 μM Sytox Green was used to stain damaged or dying cells.
(§2) In each experiment, bacteria in two channels were exposed to 0.7 ng/mL lysostaphin (lyso) in the presence or absence of the antibiotic oxacillin (oxa; 50 μg/mL). The four experimental groups are as follows: (i) control (no oxa; no lyso), (ii) lyso only; (iii) oxa only, and (iv) lyso and oxa together.

[2] = tested on: MW2 methicillin resistant cells; assay: as above; type: cell-based, Staphylococcus aureus; conditions: oxacillin 50 μg/mL or lysostaphin 0.7 ng/mL alone, flow rate 1 mL/min, 0.5 μM Sytox Green
Procedure: as §1, §2

[3] = tested on: Staphylococcus aureus; assay: Lysostaphin MIC quoted for the flow cell experiment; type: cell-based; conditions: strain not stated; quoted to justify 0.6 ng/mL lysostaphin
[4] = tested on: strain Sanger 476; assay: Classical microdilution broth MIC of lysostaphin; type: cell-based, Staphylococcus aureus; conditions: MHB, 5×10^5 CFU/mL, overnight incubation at 37° C.
Description: (§3) A classical microdilution broth method was used to determine the lysostaphin minimum inhibitory concentrations for strains MW2 and Sanger 476 (Jones, R. N., et al. Manual of clinical microbiology, A. Balows, J. W. J. Hausler, and H. J. Shadomy, Editors. 1985, American Society for Microbiology: Washington D.C. p. 972-977). Briefly, logarithmic-phase bacteria were cultivated in Mueller-Hinton cation-adjusted broth (MHB) and adjusted to a concentration of 1×10^6 CFU/mL. Sterile microtiter plates containing 100 μl of lysostaphin diluted in MHB were inoculated with 100 μl of the bacterial suspension to yield 5×10^5 CFU/mL. After overnight incubation at 37° C. overnight, the MIC for both strains was 0.06 μg/mL.

[5] = tested on: strain MW2; assay: Classical microdilution broth MIC of lysostaphin; type: cell-based, Staphylococcus aureus; conditions: MHB, 5×10^5 CFU/mL, overnight incubation at 37° C.
Description: as §3

[6] = tested on: MSSA (Sanger 476) and MRSA (MW2) strains; assay: Single-channel flow cell, immobilized cells under shear and lysostaphin stress with oxacillin, Sytox green staining; type: cell-based, Staphylococcus aureus; conditions: 10 μg/mL oxacillin, 0.6 ng/mL lysostaphin, ~4200 s^-1 shear rate for 15 mins after 40 min pretreatment with lysostaphin and shear; 0.5 μM Sytox green
Procedure: The Staphylococcus aureus (MRSA strain MW2 and MSSA strain Sanger 476) were grown to log phase in Mueller-Hinton broth with 2% sodium chloride (MH2) and then immobilized on epoxide slides, which is a non-specific method for immobilizing bacteria and can be used instead of the adhesin mechanism. To immobilize the bacteria, 100 μL of culture was placed on the epoxide slide (Super-epoxy II, Telechem International) and incubated at 37° C. for 45 min in a humid environment. The immobilized cells were briefly rinsed with water and Block-it buffer (Telechem International) to quench any remaining un-reacted epoxide bonds.
On two separate slides, MSSA (Sanger 476) and MRSA (MW2) strains were immobilized. The cells were assembled in channels of ˜300 μm width and stained with 0.5 μM Sytox green in MH2. The immobilized cells were stressed with 0.6 ng/mL lysostaphin, ˜4200 s^−1 shear rate, and 10 μg/mL oxacillin for 15 mins after a 40 min pretreatment with lysostaphin and shear alone. The lysostaphin concentration was chosen to be lower than the MIC (˜1 ng/mL).

[7] = tested on: MSSA (Sanger 476); assay: Oxacillin MIC quoted for the flow cell experiment; type: cell-based; conditions: Staphylococcus aureus
[8] = tested on: MRSA (MW2); assay: Oxacillin MIC quoted for the flow cell experiment; type: cell-based; conditions: Staphylococcus aureus

| Compound | level of fluorescence compared with the control channel ([1]; 0.7 ng/mL lysostaphin) | fluorescence compared to control MW2 cells [2] | MIC [3] [µg/mL] | minimum inhibitory concentration (MIC) [4] [µg/mL] | minimum inhibitory concentration (MIC) [5] [µg/mL] | time point at which fluorescence was increased ([1]; oxacillin 50 μg/mL with or without 0.7 ng/mL lysostaphin) | cell death, MSSA compared with MRSA [6] | MIC [7] [µg/mL] | MIC [8] [µg/mL] |
| --- | --- | --- | --- | --- | --- | --- | --- | --- | --- |
| lysostaphin | not substantially different | small increase | ~0.001 | 0.06 | 0.06 | – | – | – | – |
| Cc1onc(-c2ccccc2)c1C(=O)N[C@@H]1C(=O)N2[C@@H]1SC(C)(C)[C@@H]2C(=O)O [oxacillin] | – | no substantial increase | – | – | – | approximately 20 min | More MSSA cells died during the course of the experiment than MRSA cells | 0.5 (≈ 1.25 µM) | > 16 |
